Assay results published in ChEMBL document CHEMBL3751769, “Design, synthesis, and evaluation of semi-conservative mono-carbonyl analogs of curcumin as anti-inflammatory agents against lipopolysaccharide-induced acute lung injury” (Medchemcomm, 2015).
Calls of active or inactive are those of the source. The rule behind the calls is not given here.

Legend:
RAW264.7 [1] = experiment: Anti-inflammatory activity in mouse RAW264.7 cells assessed as inhibition of TNFalpha production preincubated for 30 mins followed by 0.5 ug/ml LPS addition after 24 hrs by ELISA; assay type: functional, cell-based
[2] = Cytotoxicity against human HL-7702 cells assessed as cell viability at 10 uM after 24 hrs by MTT assay; assay type: cell-based; details: l02, 24 h
RAW264.7 [3] = experiment: Anti-inflammatory activity in mouse RAW264.7 cells assessed as inhibition of IL-6 production preincubated for 30 mins followed by 0.5 ug/ml LPS addition after 24 hrs by ELISA; assay type: functional, cell-based
RAW264.7 [4] = experiment: Anti-inflammatory activity in mouse RAW264.7 cells assessed as inhibition of IL-6 production at 10 uM preincubated for 30 mins followed by 0.5 ug/ml LPS addition after 24 hrs by ELISA; assay type: functional
RAW264.7 [5] = experiment: Anti-inflammatory activity in mouse RAW264.7 cells assessed as inhibition of TNFalpha production at 10 uM preincubated for 30 mins followed by 0.5 ug/ml LPS addition after 24 hrs by ELISA; assay type: functional
Rattus norvegicus [6] = experiment: Anti-inflammatory activity in Sprague-Dawley rat assessed as decrease in LPS-induced TNFalpha mRNA expression at 20 mg/kg/day, po for 7 days pre-treated before LPS challenge by real-time qPCR analysis; assay type: functional
Rattus norvegicus [7] = experiment: Anti-inflammatory activity in Sprague-Dawley rat assessed as reduction in LPS-induced histopathological changes at 20 mg/kg/day, po for 7 days pre-treated before LPS challenge and measured 6 hrs after LPS challenge by light microscopic analysis; assay type: functional, organism-based
Rattus norvegicus [8] = experiment: Anti-inflammatory activity in Sprague-Dawley rat assessed as decrease in LPS- induced number of neutrophils in BALF at 20 mg/kg/day, po for 7 days pre-treated before LPS challenge and measured 6 hrs after LPS challenge by Wright-Giemsa staining method; assay type: functional, organism-based
Rattus norvegicus [9] = experiment: Anti-inflammatory activity in Sprague-Dawley rat assessed as decrease in LPS- induced elevation of BALF protein concentration at 20 mg/kg/day, po for 7 days pre-treated before LPS challenge and measured 6 hrs after LPS challenge; assay type: functional, organism-based
BEAS-2B [10] = experiment: Anti-inflammatory activity in human BEAS2B cells assessed as inhibition of LPS-induced IL1beta mRNA expression by real-time qPCR analysis; assay type: functional; set-up: scale not given: the % may be the effect or the level left
BEAS-2B [11] = experiment: Anti-inflammatory activity in human BEAS2B cells assessed as inhibition of LPS-induced COX2 mRNA expression by real-time qPCR analysis; assay type: functional; set-up: scale not given: the % may be the effect or the level left
BEAS-2B [12] = experiment: Anti-inflammatory activity in human BEAS2B cells assessed as inhibition of LPS-induced TNFalpha mRNA expression by real-time qPCR analysis; assay type: functional; set-up: scale not given: the % may be the effect or the level left
Rattus norvegicus [13] = experiment: Anti-inflammatory activity in Sprague-Dawley rat assessed as decrease in LPS-induced IL1beta mRNA expression at 20 mg/kg/day, po for 7 days pre-treated before LPS challenge by real-time qPCR analysis; assay type: functional
BEAS-2B [14] = experiment: Anti-inflammatory activity in human BEAS2B cells assessed as inhibition of LPS-induced IL6 mRNA expression by real-time qPCR analysis; assay type: functional; set-up: scale not given: the % may be the effect or the level left
Rattus norvegicus [15] = experiment: Anti-inflammatory activity in Sprague-Dawley rat assessed as decrease in LPS- induced wet/dry ratio of lung tissue at 20 mg/kg/day, po for 7 days pre-treated before LPS challenge and measured 6 hrs after LPS challenge; assay type: functional, organism-based
Rattus norvegicus [16] = experiment: Anti-inflammatory activity in Sprague-Dawley rat assessed as decrease in LPS-induced COX2 mRNA expression at 20 mg/kg/day, po for 7 days pre-treated before LPS challenge by real-time qPCR analysis; assay type: functional
Rattus norvegicus [17] = experiment: Anti-inflammatory activity in Sprague-Dawley rat assessed as decrease in LPS-induced VCAM1 mRNA expression at 20 mg/kg/day, po for 7 days pre-treated before LPS challenge by real-time qPCR analysis; assay type: functional
Rattus norvegicus [18] = experiment: Anti-inflammatory activity in Sprague-Dawley rat assessed as decrease in LPS-induced ICAM1 mRNA expression at 20 mg/kg/day, po for 7 days pre-treated before LPS challenge by real-time qPCR analysis; assay type: functional
Rattus norvegicus [19] = experiment: Anti-inflammatory activity in Sprague-Dawley rat assessed as decrease in LPS-induced IL6 mRNA expression at 20 mg/kg/day, po for 7 days pre-treated before LPS challenge by real-time qPCR analysis; assay type: functional
Rattus norvegicus [20] = experiment: Anti-inflammatory activity in Sprague-Dawley rat assessed as decrease in LPS- induced amount of TNFalpha in BALF at 20 mg/kg/day, po for 7 days pre-treated before LPS challenge and measured 6 hrs after LPS challenge by ELISA; assay type: functional, organism-based

COc1cc(/C=C2\CCC/C(=C\c3ccc(O)c(Br)c3)C2=O)ccc1O
inhibition (RAW264.7 [1]): Dose-dependent effect
Activity [2]: Non-toxic
inhibition (RAW264.7 [3]): Dose-dependent effect
inhibition (INH) (RAW264.7 [4]): >50%
inhibition (INH) (RAW264.7 [5]): >50%

COc1cc(/C=C2\CCC/C(=C\c3cccc(OC)c3OC)C2=O)ccc1O
Activity [2]: Non-toxic
inhibition (RAW264.7 [4]): Active
inhibition (RAW264.7 [5]): Active

COc1cc(/C=C2\CCC/C(=C\c3cccc(F)c3)C2=O)ccc1O
Activity [2]: Non-toxic
inhibition (RAW264.7 [4]): Active
inhibition (RAW264.7 [5]): Active

COc1cc(/C=C2\CCC/C(=C\c3c(F)cccc3F)C2=O)ccc1O
Activity [2]: Non-toxic
inhibition (RAW264.7 [4]): Active
inhibition (RAW264.7 [5]): Active

COc1cc(/C=C2\CCC/C(=C\c3ccccc3C(F)(F)F)C2=O)ccc1O
Activity [2]: Non-toxic
inhibition (RAW264.7 [4]): Active
inhibition (RAW264.7 [5]): Active

COc1cc(/C=C2\CCC/C(=C\c3cc4c(cc3Br)OCO4)C2=O)ccc1O
Activity [2]: Non-toxic
inhibition (RAW264.7 [4]): Active
inhibition (RAW264.7 [5]): Active

COc1cc(/C=C2\CCC/C(=C\c3cc(F)ccc3F)C2=O)ccc1O
Activity [2]: Non-toxic
inhibition (RAW264.7 [4]): Active
inhibition (RAW264.7 [5]): Active

COc1cc(/C=C2\CC/C(=C\c3ccc4ccccc4c3)C2=O)ccc1O
Activity [2]: Non-toxic
inhibition (RAW264.7 [4]): Active
inhibition (RAW264.7 [5]): Active

COc1ccc(OC)c(/C=C2\CCC/C(=C\c3ccc(O)c(OC)c3)C2=O)c1
Activity [2]: Non-toxic
inhibition (RAW264.7 [4]): Active
inhibition (RAW264.7 [5]): Active

CCOc1ccc(Br)cc1/C=C1\CCC/C(=C\c2ccc(O)c(OC)c2)C1=O
Activity [2]: Non-toxic
inhibition (RAW264.7 [4]): Active
inhibition (RAW264.7 [5]): Active

COc1cc(/C=C2\CCC/C(=C\c3ccc(OC)c(OC)c3)C2=O)ccc1O
Activity [2]: Non-toxic
inhibition (RAW264.7 [4]): Active
inhibition (RAW264.7 [5]): Active

COc1cc(/C=C2\CC/C(=C\c3cc(C)ccc3C)C2=O)ccc1O
inhibition (RAW264.7 [1]): Dose-dependent effect
Activity [2]: Non-toxic
inhibition (RAW264.7 [3]): Dose-dependent effect
inhibition (INH) (RAW264.7 [4]): >50%
inhibition (INH) (RAW264.7 [5]): >50%

COc1cc(/C=C2\CCC/C(=C\c3ccc(O)cc3)C2=O)ccc1O
Activity [2]: Non-toxic
inhibition (RAW264.7 [4]): Active
inhibition (RAW264.7 [5]): Active

COc1ccc(/C=C2\CCC/C(=C\c3ccc(O)c(OC)c3)C2=O)cc1
Activity [2]: Non-toxic
inhibition (RAW264.7 [4]): Active
inhibition (RAW264.7 [5]): Active

COc1cc(/C=C2\CCC/C(=C\c3ccc(Cl)cc3Cl)C2=O)ccc1O
Activity [2]: Non-toxic
inhibition (RAW264.7 [4]): Active
inhibition (RAW264.7 [5]): Active

COc1cc(/C=C2\CCC/C(=C\c3ccccc3F)C2=O)ccc1O
Activity [2]: Non-toxic
inhibition (RAW264.7 [4]): Active
inhibition (RAW264.7 [5]): Active

COc1ccc(/C=C2\CC/C(=C\c3ccc(O)c(OC)c3)C2=O)c(F)c1
Activity [2]: Non-toxic
inhibition (RAW264.7 [4]): Active
inhibition (RAW264.7 [5]): Active

COc1cc(/C=C2\CCC/C(=C\c3c(C)cc(C)cc3C)C2=O)ccc1O
Activity [2]: Non-toxic
inhibition (RAW264.7 [4]): Active
inhibition (RAW264.7 [5]): Active

COc1cc(/C=C2\CC/C(=C\c3c[nH]c4ncccc34)C2=O)ccc1O
Activity [2]: Non-toxic
inhibition (RAW264.7 [4]): Active
inhibition (RAW264.7 [5]): Active

COc1cc(/C=C2\CCC/C(=C\c3ccc(Cl)cc3)C2=O)ccc1O
Activity [2]: Non-toxic
inhibition (RAW264.7 [4]): Active
inhibition (RAW264.7 [5]): Active

COc1cc(/C=C2\CCC/C(=C\c3cc(OC)c(OC)c(OC)c3)C2=O)ccc1O
Activity [2]: Non-toxic
inhibition (RAW264.7 [4]): Active
inhibition (RAW264.7 [5]): Active

COc1cc(/C=C2\CCC/C(=C\c3ccccc3Br)C2=O)ccc1O
Activity [2]: Non-toxic
inhibition (RAW264.7 [4]): Active
inhibition (RAW264.7 [5]): Active

COc1ccc(/C=C2\CCC/C(=C\c3ccc(O)c(OC)c3)C2=O)c(OC)c1
Activity [2]: Non-toxic
inhibition (RAW264.7 [4]): Active
inhibition (RAW264.7 [5]): Active

COc1cc(/C=C2\CCC/C(=C\c3ccc(F)c(Br)c3)C2=O)ccc1O
Activity [2]: Non-toxic
inhibition (RAW264.7 [4]): Active
inhibition (RAW264.7 [5]): Active

COc1cc(/C=C2\CCC/C(=C\c3cccc(Cl)c3Cl)C2=O)ccc1O
Activity [2]: Non-toxic
inhibition (RAW264.7 [4]): Active
inhibition (RAW264.7 [5]): Active

COc1cc(/C=C2\CCC/C(=C\c3ccc4ccccc4c3)C2=O)ccc1O
Activity [2]: Non-toxic
inhibition (RAW264.7 [4]): Active
inhibition (RAW264.7 [5]): Active

COc1cc(/C=C2\CCC/C(=C\c3ccc(Cl)c([N+](=O)[O-])c3)C2=O)ccc1O
Activity [2]: Non-toxic
inhibition (RAW264.7 [4]): Active
inhibition (RAW264.7 [5]): Active

COc1cc(/C=C2\CCC/C(=C\c3ccc(F)c(F)c3)C2=O)ccc1O
Activity [2]: Non-toxic
inhibition (RAW264.7 [4]): Active
inhibition (RAW264.7 [5]): Active

COc1cc(/C=C2\CCC/C(=C\c3cc(Br)c(O)c(Br)c3)C2=O)ccc1O
Activity [2]: Non-toxic
inhibition (RAW264.7 [4]): Active
inhibition (RAW264.7 [5]): Active

COc1cc(/C=C2\CC/C(=C\c3c[nH]c4ccc(Br)cc34)C2=O)ccc1O
inhibition in vivo at 20 mg/kg/day (Rattus norvegicus [6]): 38.4%
Activity (Rattus norvegicus [7]): Active
inhibition (RAW264.7 [1]): Dose-dependent effect
Activity (Rattus norvegicus [8]): Active
Activity (Rattus norvegicus [9]): Active
Activity (BEAS-2B [10]): 55.6%
Activity (BEAS-2B [11]): 64.9%
Activity (BEAS-2B [12]): 64.5%
inhibition in vivo at 20 mg/kg/day (Rattus norvegicus [13]): 39.2%
Activity (BEAS-2B [14]): 30%
Activity [2]: Non-toxic
Activity (Rattus norvegicus [15]): Active
inhibition in vivo at 20 mg/kg/day (Rattus norvegicus [16]): 77.3%
inhibition in vivo at 20 mg/kg/day (Rattus norvegicus [17]): 52.9%
inhibition in vivo at 20 mg/kg/day (Rattus norvegicus [18]): 74.1%
inhibition in vivo at 20 mg/kg/day (Rattus norvegicus [19]): 92.9%
inhibition (RAW264.7 [3]): Dose-dependent effect
inhibition (INH) (RAW264.7 [4]): >50%
Activity (Rattus norvegicus [20]): Active
inhibition (INH) (RAW264.7 [5]): >50%

COc1cc(/C=C2\CCC/C(=C\c3cccc(OC)c3O)C2=O)ccc1O
Activity [2]: Non-toxic
inhibition (RAW264.7 [4]): Active
inhibition (RAW264.7 [5]): Active

COc1cc(/C=C2\CCC/C(=C\c3ccccc3OC)C2=O)ccc1O
Activity [2]: Non-toxic
inhibition (RAW264.7 [4]): Active
inhibition (RAW264.7 [5]): Active

COc1ccc(/C=C2\CCC/C(=C\c3ccc(O)c(OC)c3)C2=O)cc1O
inhibition (RAW264.7 [1]): Dose-dependent effect
Activity [2]: Non-toxic
inhibition (RAW264.7 [3]): Dose-dependent effect
inhibition (INH) (RAW264.7 [4]): >50%
inhibition (INH) (RAW264.7 [5]): >50%

COc1cc(/C=C2\CC/C(=C\c3cc4ccccc4[nH]3)C2=O)ccc1O
Activity [2]: Non-toxic
inhibition (INH) (RAW264.7 [4]): >50%
inhibition (INH) (RAW264.7 [5]): >50%

COc1cc(/C=C2\CCC/C(=C\c3ccc(O)c(O)c3)C2=O)ccc1O
Activity [2]: Non-toxic
inhibition (RAW264.7 [4]): Active
inhibition (RAW264.7 [5]): Active

COc1cc(/C=C2\CC/C(=C\c3cc4c(cc3Br)OCO4)C2=O)ccc1O
Activity [2]: Non-toxic
inhibition (RAW264.7 [4]): Active
inhibition (RAW264.7 [5]): Active

COc1cc(/C=C2\CCC/C(=C\c3ccc(Cl)c(Cl)c3)C2=O)ccc1O
Activity [2]: Non-toxic
inhibition (RAW264.7 [4]): Active
inhibition (RAW264.7 [5]): Active
